Read-outs that look alike come from different tables or passages of the source.
Assays:
[1] = test system: NCI-H929-1051 (lenalidomide-resistant); assay: Cell proliferation assay (CTG, 120 h); assay type: cell-based, human; settings: for IC50: Homo sapiens, 120 h
Experimental: Cell Culture Materials: Human multiple myeloma cell lines were purchased from the vendors and cultured at 37° C. with 5% CO2 in the media as indicated in Table 1. Lenalidomide and pomalidomide resistant cell lines were obtained by methods as generally described previously (Lopez-Girona et al Leukemia 2012; 26(11): 2335). All cell lines were kept in log phase, and cell density and viability were monitored by trypan blue exclusion using the Vi-cell XR cell viability analyzer (Beckman Coulter, Brea, CA).
Preparation of Solutions of Test Article: Compounds were plated into black 384-well plates (Corning Inc.) to a final DMSO volume of 0.1% assuming a maximal volume of 50 μL. A 10-point dose response starting at 10 μM with a 1:3 dilution was printed in duplicate by acoustic dispense using the EDC ATS-100 platform. Alternatively, the 10-point dose response starting at 10 μM with a 1:10 dilution, or starting at 100 nM with a 1:3 dilutions were used.
Cell Proliferation Assays: The effect of compounds on the proliferation/viability of the hematological cell lines (Table 1), was assessed after 120 h incubation using CTG (Promega), according to manufacturer's instructions. Hematological cell lines were dispensed into compound plates by a Multidrop Combi Reagent Dispenser (Thermo Scientific, Waltham, MA) at a concentration of 0.1×10^6 cells per mL in a 50 μL total volume. At 120 h, 25 μL per well of CTG was dispensed by a Multidrop Combi Reagent Dispenser and adenosine triphosphate (ATP) release by viable cells was measured as relative luminescence units after 30 minutes using the Envision platform.
Results. […] The MM cell lines selected for this study were lines sensitive and resistant to lenalidomide and/or pomalidomide (Table 1), two agents used in the clinic to treat myeloma patients. Proliferation was assessed using the CellTitre-Glo© assay. Results for cultures incubated with the compounds were normalized to results for control cultures for each cell line. The IC50 for inhibition of cell growth by the compounds was determined for each cell line using ActivityBase software.
Combination with Dexamethasone. The activity of pomalidomide with that of Compound 2 alone or in combination with dexamethasone was evaluated across a panel of MM cell lines. […] Table 3 summarizes the potency (IC50) of the single agent and dexamethasone combination studies performed in the H929-1051 cell line. […] Each IC50 is the average from at least 3 independent experiments. Proliferation was monitored on Day 5 using Cell Titer-Glo.

α1A adrenergic receptor = target: T1, α1A adrenergic receptor (Homo sapiens, UniProt P35348); assay: α1A adrenergic receptor antagonist assay (calcium mobilization, CHO cells); assay type: cell-based
T1 construct: host or cells: CHO cells
T1 sequence (P35348 1-466): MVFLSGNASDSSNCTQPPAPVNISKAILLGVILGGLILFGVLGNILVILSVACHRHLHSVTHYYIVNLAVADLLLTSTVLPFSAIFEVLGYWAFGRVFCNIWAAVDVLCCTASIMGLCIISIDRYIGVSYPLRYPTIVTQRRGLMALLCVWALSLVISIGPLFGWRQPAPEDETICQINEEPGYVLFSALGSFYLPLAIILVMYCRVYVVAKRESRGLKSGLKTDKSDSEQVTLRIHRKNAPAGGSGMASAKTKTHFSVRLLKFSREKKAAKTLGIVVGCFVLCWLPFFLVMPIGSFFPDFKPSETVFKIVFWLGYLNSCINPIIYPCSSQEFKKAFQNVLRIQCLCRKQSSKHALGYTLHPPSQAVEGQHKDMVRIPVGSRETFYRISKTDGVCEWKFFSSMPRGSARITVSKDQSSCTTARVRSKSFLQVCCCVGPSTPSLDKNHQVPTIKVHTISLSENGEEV
Experimental: (§1) α1 Adrenergic and Dopamine D2 Receptors. Methods: Binding and functional assays for α1 adrenergic and dopamine D2 receptors were performed by Eurofins Cerep according to their methods.
Antagonist activity. The antagonistic effects of test compounds on the α1A and α1B adrenergic receptors were measured using human receptor-transfected Chinese hamster ovary (CHO) cells. Antagonist activity was determined by measuring compound effect on agonist (epinephrine)-induced calcium mobilization in the α1A receptor assay or cAMP levels in the α1B receptor assay. In these experiments, CHO cells were incubated in duplicate at room temperature with test article and epinephrine at 3 nM in the α1A receptor assays or at 3000 nM in the α1B receptor assay. Compound A was tested in the α1A receptor assay at 0.01-30 μM. […] Compound 1 and Compound 2 were assayed at 0.03 to 30 μM in the α1A receptor assay and 0.03 to 100 μM in the α1B receptor assay. In the α1A receptor assay, cytosolic calcium levels were measured fluorometrically using the fluorescent probe, Fluo4 Direct. Intracellular cAMP levels in the α1B adrenergic receptor assay were measured by homogenous time-resolved fluorescence (HTRF). The antagonism IC50 was defined as the concentration causing a half-maximum inhibition of control agonist response.

dopamine D2L receptor = target: T2, dopamine D2L receptor (Homo sapiens, UniProt P14416); assay: Dopamine D2L receptor radioligand binding (HEK-293)
T2 construct: host or cells: HEK-293 cells (membrane homogenates)
Experimental: as §1
Dopamine D2 Receptor. Binding at 10 μM. The binding assay evaluated the affinity of test articles for the dopamine D2 receptor in transfected human embryonic kidney (HEK)-293 cells. For determining the binding in the D2S receptor assay, test article was incubated with 0.3 nM [^3H] methylspiperone or 1 nM [^3H] 7-hydroxy-2-N,N-dipropylaminotetralin (7-OH-DPAT). [3H] Methylspiperone at 0.3 nM also was used as control ligand in the D2L binding assay. Cell membrane homogenates were incubated in duplicate at room temperature for 60 minutes with ligand in the absence or presence of test articles at 10 μM. After the incubation period, samples were filtered through glass fiber filters, the filters dried and then counted for radioactivity using a scintillation counter. Results are expressed as mean percent inhibition of control radioligand binding.
Binding IC50. To determine the binding IC50 in the D2 receptor assays, HEK-293 were tested as described above but with varying concentrations of test article. Compound A was tested at 0.01-30 μM in the D2S radioligand binding assay. […] Compound 1 was assayed at 0.03-100 μM in both the D2S and D2L assays, while Compound 2 was tested at 0.03-100 μM in the D2S assay and 0.01-100 μM in the D2L assays. The IC50 was defined as the concentration causing a half-maximum inhibition of control specific binding.

[2] = CTG, read-out: NCI-H929.1051 120 h IC50
[3] = read-out: 0.01 μM Dex Combo IC50, H929-1051, Day 5, in combination with 0.01 μM dexamethasone
[4] = read-out: 0.1 μM Dex Combo IC50, H929-1051, Day 5, in combination with 0.1 μM dexamethasone
[5] = read-out: 1 μM Dex Combo IC50, H929-1051, Day 5, in combination with 1 μM dexamethasone
[6] = H929-1051, Day 5 Cell Titer-Glo, single agent, read-out: Single Agent IC50

T2 sequence (P14416 whole entry): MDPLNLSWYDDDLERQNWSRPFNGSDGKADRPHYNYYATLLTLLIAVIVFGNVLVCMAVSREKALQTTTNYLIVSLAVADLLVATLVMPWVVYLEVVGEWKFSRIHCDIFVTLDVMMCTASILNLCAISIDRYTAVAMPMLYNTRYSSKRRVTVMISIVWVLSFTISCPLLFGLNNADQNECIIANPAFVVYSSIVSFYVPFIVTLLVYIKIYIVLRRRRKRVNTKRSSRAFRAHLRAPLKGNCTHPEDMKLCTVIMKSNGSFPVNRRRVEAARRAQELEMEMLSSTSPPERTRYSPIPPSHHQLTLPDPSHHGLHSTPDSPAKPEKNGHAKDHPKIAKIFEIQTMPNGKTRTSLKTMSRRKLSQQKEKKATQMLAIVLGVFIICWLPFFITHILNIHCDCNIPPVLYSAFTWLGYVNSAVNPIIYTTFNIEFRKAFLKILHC

| SMILES | IC50 [1, 2] [nM] | IC50 (α1A adrenergic receptor) [nM] | IC50 (dopamine D2L receptor) [nM] | inhibition at 10 µM (dopamine D2L receptor; read-out: D2L % Inhibition (10 μM)) [%] | potency of single agent versus pomalidomide-dexamethasone combination ([1]; H929-1051) [fold] | IC50 [1, 3] [nM] | IC50 [1, 4] [nM] | IC50 [1, 5] [nM] | IC50 [1, 6] [nM] | IC50 (α1A adrenergic receptor; epinephrine 3 nM, calcium mobilization, read-out: Antagonism IC50 α1A) [nM] | D2L % Inhibition (10 μM) (dopamine D2L receptor; 10 μM) [%] | IC50 (dopamine D2L receptor; read-out: D2L Binding IC50) [nM] |
| --- | --- | --- | --- | --- | --- | --- | --- | --- | --- | --- | --- | --- |
| N#Cc1ccc(N2CCN(Cc3ccc(COc4cccc5c4CN(C4CCC(=O)NC4=O)C5=O)cc3)CC2)c(F)c1 (racemic) [Compound 1, 4-(4-(4-(((2-(2,6-dioxopiperidin-3-yl)-1-oxoisoindolin-4-yl)oxy)methyl)benzyl)piperazin-1-yl)-3-fluorobenzonitrile] | 2.5 | 980 | 2300 | 55 | – | – | – | – | – | – | – | – |
| N#Cc1ccc(N2CCN(Cc3ccc(COc4cccc5c4CN([C@H]4CCC(=O)NC4=O)C5=O)cc3)CC2)c(F)c1 [Compound 2, (S)-4-(4-(4-(((2-(2,6-dioxopiperidin-3-yl)-1-oxoisoindolin-4-yl)oxy)methyl)benzyl)piperazin-1-yl)-3-fluorobenzonitrile] | 1 | 580 | ~3000 | – | 10 | 0.41 | 0.0429 | 0.018 | 0.98 | – | – | – |
| O=C1CC[C@H](N2Cc3c(OCc4ccc(CN5CCN(c6ccc(F)cc6F)CC5)cc4)cccc3C2=O)C(=O)N1 [Compound B] | – | – | – | – | – | – | – | – | – | 6.4 | 103 | 84 |
| Nc1cccc2c1C(=O)N(C1CCC(=O)NC1=O)C2=O (stereo not shown) [Pomalidomide, pomalidomide] | – | – | – | – | – | 3840 | 118 | 18.8 | > 10000 | – | – | – |

Source: patent US12029738B2, “Antiproliferative compounds and methods of use thereof” (Celgene Corporation, priority 2017, dated 2024)
